From PMC12699035, “Exploring market-approved azoles as potential breast cancer therapeutics targeting the VEGFR-2 biotarget” (Scientific Reports, 2025) come the findings set out here.

The viability is a per cent measure of how many cells are alive, often set against a control.

Like-named read-outs stand apart in the source and are kept apart here.

One test relates to MCF-10A cells. The test is described as follows: Cytotoxicity against MCF-10A cells, MTT assay (five doses). It is filed as cell-based. The following applies: Homo sapiens, MCF-10A normal cells, five dose concentrations, n = 3, read-out: MCF-10A IC50 ± SD.
The next test has as its target T1, VEGFR-2 (Homo sapiens, UniProt P35968).
T1 construct: purchased BPS Bioscience 40325
Nature of the test: VEGFR-2 kinase inhibition, luminescent VEGFR2 (KDR) kinase assay kit (BPS Bioscience # 40325). The test is classed as biochemical. On the procedure:
Functionally, this pathway operates in autocrine and intracrine modes to promote cell proliferation, survival, and resistance to apoptosis through downstream effectors such as PI3K/AKT and p38 MAPK.
SIT, FLU and TNZ were tested using the five dose sigmoidal curves to determine the IC50 values. […] At the end of these experiment, anti-tumor potentiality was recorded using tumor weight (mg), tumor volume (mm^3), and the tumor inhibition ratio (TIR%). Hematological parameters of Hemoglobin (Hb, g/dL), RBC’s count (10^6/μL), and WBC’s count (10^3/μL) were investigated, along with histopathological and immunohistochemical staining of the VEGR2 protein.
Compounds Itraconazole. […] [12].

The subject of a further test is MCF-7 cells. Nature of the test: Cytotoxicity against MCF-7 cells, MTT assay (single dose and five doses). (Formazan colour is commonly taken as a measure of viable cells.)
The subject of test [1] is Solid Ehrlich Carcinoma (SEC). Nature of the test: In vivo anti-tumor activity in solid Ehrlich carcinoma (SEC)-bearing mice (tumor mass, volume, TIR%, hematology, histopathology). On the procedure:
All experimental protocols were approved by the Research Ethics Committee and Institutional Animal Care and Use Committee, Faculty of Science, Suez Canal University with the ethical code (SCU-Sci-REC439/2025), and all methods were carried out according to the European Union guidelines and in accordance with ARRIVE guidelines. All animals were anesthetized using a combination of Xylazine 10 mg/kg- Ketamine 100 mg/kg of body weight, respectively, prior sacrifice via cervical decapitation.
In all graphs, treatments were administrated intraperitoneal (IP) with 6 mg/Kg B.Wt. for two weeks, day after day.
SIT, FLU and TNZ were tested using the five dose sigmoidal curves to determine the IC50 values. They were tested for the VEGFR2 inhibition using VEGFR2 Kinase Inhibition Assay Kit Catalog # 40325 BPS Bioscience, San Diego, CA. […] At the end of these experiment, anti-tumor potentiality was recorded using tumor weight (mg), tumor volume (mm^3), and the tumor inhibition ratio (TIR%). Hematological parameters of Hemoglobin (Hb, g/dL), RBC’s count (10^6/μL), and WBC’s count (10^3/μL) were investigated, along with histopathological and immunohistochemical staining of the VEGR2 protein.
Adult female Swiss albino mice purchased from Faculty of Pharmacy, Suez Canal University, Ismailia, Egypt, with an average body weight of (18-23) g was used. Mice were housed under constant conditions of 12 h light/dark cycle in a […], with free access to standard laboratory mice food and water. All procedures related to care and maintenance of the animals were performed according to the international guiding principles for animal research and approved by the Faculty of Pharmacy, Suez Canal University bioethics and animal ethics committee.
Solid Ehrlich carcinoma (SEC) was got from the National Cancer Institute (Cairo University, Egypt). The tumor cell line proliferated in mice through serial intraperitoneal (I.P.) transplantation of a volume of 0.2 mL physiological saline containing 1×10^6 viable cells for 24 h. SEC cells were collected 7 days after I.P. implantation. The harvested cells were diluted with saline to obtain a concentration of 5×10^6 viable SEC cells/mL. A volume of 0.2 mL saline contains 1×10^6 SEC cells that were I.P. implanted into each normal mouse. SEC cells (1×10^6 tumor cells/mouse) were implanted subcutaneously into the right thigh of the hind limb.
The experimental animals were randomly divided into four groups. Group 1 served as the normal saline control. Group 2 served as the SEC control (1×10^6 cells/mouse). Group 3 served as the ITR-treated group (6 mg/kg B.Wt., I.P.). […] Body weight and survival were recorded daily until the 24th day in both treated and control groups. At the end of the experiment, anesthetized animals were then sacrificed for evaluation of the antitumor activity and histopathological examination.
It includes tumor volume, weight, and tumor inhibition ratio (TIR%). Time interval measurements of tumor volume using a digital Vernier caliper (Tricle Brand, Shanghai, China). Measure tumor length and width using a clipper and then calculate tumor volume using formulations V = (L x W x W)/2, where V is tumor volume, W is tumor width, L is tumor length. While TIR% was calculated according to the following equation Tumor volume Control-Tumor volume (treated)Tumor volume (control)x 100.
Specimens of liver-sacrificed mice were fixed in 10% saline formalin. The fixed liver specimens were Dehydrated in ascending series of ethyl alcohol and embedded in paraffin.

T1 sequence (P35968 20-1356): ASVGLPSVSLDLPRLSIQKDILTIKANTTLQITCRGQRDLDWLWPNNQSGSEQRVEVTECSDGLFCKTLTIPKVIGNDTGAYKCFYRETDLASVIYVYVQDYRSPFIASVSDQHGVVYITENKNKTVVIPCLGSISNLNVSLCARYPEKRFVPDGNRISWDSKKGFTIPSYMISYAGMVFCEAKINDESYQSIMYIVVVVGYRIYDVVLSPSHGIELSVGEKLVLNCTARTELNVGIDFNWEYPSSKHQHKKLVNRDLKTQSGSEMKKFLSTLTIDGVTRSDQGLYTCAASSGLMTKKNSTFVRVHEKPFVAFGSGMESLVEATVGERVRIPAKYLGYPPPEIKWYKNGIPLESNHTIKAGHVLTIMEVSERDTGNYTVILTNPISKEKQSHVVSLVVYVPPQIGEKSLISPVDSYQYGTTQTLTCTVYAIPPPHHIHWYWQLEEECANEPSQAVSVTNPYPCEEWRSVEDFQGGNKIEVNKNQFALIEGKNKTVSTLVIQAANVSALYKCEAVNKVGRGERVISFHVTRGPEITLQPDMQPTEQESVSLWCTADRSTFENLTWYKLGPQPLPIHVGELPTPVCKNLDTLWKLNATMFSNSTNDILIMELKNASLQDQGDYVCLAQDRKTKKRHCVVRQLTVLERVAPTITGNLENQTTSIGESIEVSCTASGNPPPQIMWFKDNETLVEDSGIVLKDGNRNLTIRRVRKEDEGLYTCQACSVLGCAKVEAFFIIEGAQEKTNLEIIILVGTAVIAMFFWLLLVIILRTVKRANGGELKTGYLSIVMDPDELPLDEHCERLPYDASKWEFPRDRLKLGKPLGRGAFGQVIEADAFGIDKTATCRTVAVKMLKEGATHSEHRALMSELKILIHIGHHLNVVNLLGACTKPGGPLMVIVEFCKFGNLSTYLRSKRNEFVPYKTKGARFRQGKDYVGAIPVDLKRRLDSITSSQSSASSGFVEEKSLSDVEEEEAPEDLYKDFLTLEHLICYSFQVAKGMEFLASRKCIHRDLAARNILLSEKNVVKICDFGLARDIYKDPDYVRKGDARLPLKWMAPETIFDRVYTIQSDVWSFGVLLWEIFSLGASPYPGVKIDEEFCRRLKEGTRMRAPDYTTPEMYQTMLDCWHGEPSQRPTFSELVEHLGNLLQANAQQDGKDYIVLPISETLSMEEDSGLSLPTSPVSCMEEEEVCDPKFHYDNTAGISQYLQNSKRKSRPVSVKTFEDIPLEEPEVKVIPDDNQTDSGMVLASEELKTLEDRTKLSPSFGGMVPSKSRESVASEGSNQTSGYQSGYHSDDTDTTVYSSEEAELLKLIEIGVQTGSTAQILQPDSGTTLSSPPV

As to `CCC(C)n1ncn(-c2ccc(N3CCN(c4ccc(OCC5COC(Cn6cncn6)(c6ccc(Cl)cc6Cl)O5)cc4)CC3)cc2)c1=O` (stereo not shown) [Itraconazole, itraconazole], the IC50 in the test on MCF-10A cells came to 49.6 ± 2.5 µM; on VEGFR-2 (enzyme inhibition, dose-response, non-linear regression, read-out: VEGFR-2 inhibition IC50), 32.7 µM; with MCF-7 cells (Homo sapiens, MCF7, read-out: MCF-7 IC50 ± SD, MCF-7, five dose concentrations, MTT, n = 3), 25.7 ± 0.9 µM. The “VEGFR-2 enzyme inhibition LogIC50 (Fig. 3)” value at VEGFR-2 (dose-response curve fit, unit not given) is given as 1.515. Besides, the viability at 100 µg/mL amounted to 69.5% with MCF-7 cells (Homo sapiens, MCF7, read-out: Average viability%); 70.8% in the test on MCF-7 cells (Homo sapiens, MCF7, read-out: Viability (%) 1); 70.1% in the test on MCF-7 cells (Homo sapiens, MCF7, read-out: Viability (%) 2); 67.7% in the test on MCF-7 cells (Homo sapiens, MCF7, read-out: Viability (%) 3). For the same molecule, the “Average OD” value in the test on MCF-7 cells (MCF-7, single dose 100 μg/mL, MTT optical density, average of triplicates) is recorded as 2.24. In the test with MCF-7 cells (MCF-7, single dose 100 μg/mL, MTT optical density, replicate 1), this molecule yielded an OD1 of 2.28. Further, in the test with MCF-7 cells (MCF-7, single dose 100 μg/mL, MTT optical density, replicate 2), the OD2 is on record as 2.26. Further, the OD3 with MCF-7 cells (MCF-7, single dose 100 μg/mL, MTT optical density, replicate 3) is recorded as 2.18. Moreover, the solid tumor mass in test [1] (6 mg/Kg B.Wt. IP, two weeks, day after day, SEC control 469 mg) was found to be 237 mg. Moreover, in test [1] (6 mg/Kg B.Wt. IP, two weeks, day after day, SEC control 420 mm^3), the tumor volume stood at 221 mm^3. The “Tumor inhibition ratio (TIR%)” value in test [1] (6 mg/Kg B.Wt. IP, two weeks, day after day, TIR% = C − T/C × 100) is 47.4%. In test [1] (6 mg/Kg IP, normal 5, SEC control 9.2), the “WBC's count” value is recorded as 6.7 10^3/µL. Moreover, in test [1] (6 mg/Kg IP, normal 6.9, SEC control 3.1), the “RBC's count” value is 5.1 10^6/µL. The Hemoglobin level in test [1] (6 mg/Kg IP, normal 11.6, SEC control 4.6) was 6.8 g/dL. In addition, in test [1] (isolated tumor mass, SEC control 2.2 cm^2), the “Tumor cell density (histopathology of SEC mass)” value worked out at 1.2 cm^2.
